The target in the assay is T1, SYK (Homo sapiens, UniProt P43405).
T1 construct: 2.5 nM SYK, 400 nM Biotin-Aha-Aha-KEDPDYEWPSAKK and 10 μM ATP
As to the kind of experiment: SYK Flash Plate Assay (enzyme assay). It counts as biochemical. On the procedure: The kinase assay is performed either as 384-well Flashplate assay (for e.g. Topcount measurement) or as 384-well Image-Flashplate assay (for LEADseeker measurement).
2.5 nM SYK, 400 nM Biotin-Aha-Aha-KEDPDYEWPSAKK and 10 μM ATP (spiked with 0.3 μCi 33P-ATP/well) are incubated in a total volume of 50 μl (60 mM Hepes, 10 mM MgCl2, 1.2 mM Dithiothreitol, 0.02% Brij35, 0.1% BSA, pH 7.5) with or without test compound for 1 hours at 30° C. The reaction is stopped with 25 μl 200 mM EDTA. After 30 Min at 30° C. the liquid is removed and each well washed thrice with 100 μl 0.9% sodium chloride solution. Non-specific reaction is determined in presence of 0.1 μM Staurosporine. Radioactivity is measured with Topcount (when using Flashplates) or with LEADseeker (when using Image-Flashplates) respectively. Results (e.g. IC50-values) are calculated with program tools provided by the IT-department (e.g. Symyx Assay Explorer, Genedata Screener).

Among the data in patent US20150038527A1, “FUROPYRIDINE DERIVATIVES” (Merck Patent GmbH, priority 2012, published 2015) are IC50 values, retold here.

Structures are written as SMILES.

Molecule `COc1cc(OCCN)ccc1-c1cc2nccc(-c3ccc4[nH]cnc4c3)c2o1` [Compound A18, 2-{4-[7-(1H-benzoimidazol-5-yl)-furo[3,2-b]pyridin-2-yl]-3-methoxy-phenoxy}-ethylamine] had a concentration for half-maximal inhibition (IC50) of 0.3 to 3 µM.

In turn, `COc1ccc(C(N)=O)cc1-c1cc2nccc(-c3cccc(C(=O)N[C@@H]4CCCC[C@@H]4N)c3)c2o1` [Compound A46, 3-{7-[3-((1R,2S)-2-amino-cyclohexylcarbamoyl)-phenyl]-furo[3,2-b]pyridin-2-yl}-4-methoxy-benzamide] gave an IC50 of 0.3 to 3 µM.

`COC[C@@H](N)CNC(=O)c1cccc(-c2ccnc3cc(-c4cc(OC)c(OC)c(OC)c4)oc23)c1` [Compound A26, N—((S)-2-amino-3-methoxy-propyl)-3-[2-(3,4,5-trimethoxy-phenyl)-furo[3,2-b]pyridin-7-yl]-benzamide] showed an IC50 of 3 to 50 µM.

With `COc1ccc(C(N)=O)cc1-c1cc2nccc(-c3cc(C(N)=O)ccc3OC)c2o1` [Compound A31, 3-[2-(5-carbamoyl-2-methoxy-phenyl)furo[3,2-b]pyridin-7-yl]-4-methoxybenzamide], the IC50 lay within 0.3 to 3 µM.

In turn, `CCc1ccc(OC)c(-c2cc3nccc(-c4cccc(C(=O)N[C@@H]5CCCC[C@@H]5N)c4)c3o2)c1` [Compound A43, N-((1R,2S)-2-amino-cyclohexyl)-3-[2-(5-ethyl-2-methoxy-phenyl)-furo[3,2-b]pyridin-7-yl]-benzamide] registered a half-inhibitory concentration (IC50) of 0.3 to 3 µM.

With `COCC(O)CNC(=O)c1cccc(-c2ccnc3cc(-c4cc(OC)c(OC)c(OC)c4)oc23)c1` (stereo not shown) [Compound A16, N-(2-hydroxy-3-methoxy-propyl)-3-[2-(3,4,5-trimethoxy-phenyl)-furo[3,2-b]pyridin-7-yl]-benzamide], the half-maximal inhibitory concentration (IC50) fell in the range of 3 to 50 µM.

With `COc1ccc(C(N)=O)cc1-c1cc2nccc(-c3cnc(F)cc3C)c2o1` [Compound A54, 3-[7-(6-fluoro-4-methyl-pyridin-3-yl)-furo[3,2-b]pyridin-2-yl]-4-methoxybenzamide], the IC50 fell in the range of 3 to 50 µM.

The molecule `COc1ccc(S(N)(=O)=O)cc1-c1cc2nccc(-c3cc[nH]n3)c2o1` [Compound A82, 4-methoxy-3-[7-(1H-pyrazol-3-yl)-furo[3,2-b]pyridin-2-yl]-benzenesulfonamide] yielded an IC50 of less than 0.1 µM.

In turn, `COc1ccc(C(=O)O)cc1-c1cc2nccc(-c3c(OC)cccc3OC)c2o1` [Compound A66, 3-[7-(2,6-dimethoxy-phenyl)-furo[3,2-b]pyridin-2-yl]-4-methoxy-benzoic acid] registered an IC50 of 0.3 to 3 µM.

`COc1cc(-c2cc3ncc(-c4cn[nH]c4)cc3o2)cc(OC)c1OC` [Compound A59, 6-(1H-pyrazol-4-yl)-2-(3,4,5-trimethoxy-phenyl)-furo[3,2-b]pyridine] showed an IC50 of 3 to 50 µM.

`COc1ccc(C(N)=O)cc1-c1cc2nccc(-c3cc(C(=O)NCCN)ccc3OC)c2o1` [Compound A79, 3-[7-[5-(2-aminoethylcarbamoyl)-2-methoxy-phenyl]furo[3,2-b]pyridin-2-yl]-4-methoxy-benzamide] showed an IC50 of 0.3 to 3 µM.

In turn, `COc1ccc(C(N)=O)cc1-c1cc2nccc(-c3cnc[nH]3)c2o1` [Compound A93, 3-[7-(3H-imidazol-4-yl)-furo[3,2-b]pyridin-2-yl]-4-methoxy-benzamide] displayed an IC50 of 0.1 to 0.3 µM.

Take `COc1cc(O)ccc1-c1cc2nccc(-c3cccc(C(=O)N[C@@H]4CCCC[C@@H]4N)c3)c2o1` [Compound A15, N-((1R,2S)-2-amino-cyclohexyl)-3-[2-(4-hydroxy-2-methoxy-phenyl)furo[3,2-b]pyridin-7-yl]-benzamide]: the 50% inhibitory concentration (IC50) was in the range of 0.3 to 3 µM.

Consider `COc1cccc(OC)c1-c1ccnc2cc(-c3cc(C(N)=O)ccc3C(C)C)oc12` [Compound A74, 3-[7-(2,6-dimethoxy-phenyl)-furo[3,2-b]pyridin-2-yl]-4-isopropyl-benzamide], for which the IC50 lay within 3 to 50 µM.

`COc1ccc(C(N)=O)cc1-c1cc2nccc(-c3cc[nH]c3)c2o1` [Compound A94, 4-methoxy-3-[7-(1H-pyrrol-3-yl)-furo[3,2-b]pyridin-2-yl]-benzamide] gave an IC50 of 0.1 to 0.3 µM.

`COc1ccc(CNCCN)cc1-c1ccnc2cc(-c3cc(OC)c(OC)c(OC)c3)oc12` [Compound A4, N1-{4-methoxy-3-[2-(3,4,5-trimethoxy-phenyl)-furo[3,2-b]pyridin-7-yl]-benzyl}-ethane-1,2-diamine] returned an IC50 of 0.3 to 3 µM.

`COc1cc(-c2cc3nccc(-c4ccnc(NC[C@@H]5CCCNC5)c4)c3o2)cc(OC)c1OC` [Compound A7, (R)-1-piperidin-3-ylmethyl-{4-[2-(3,4,5-trimethoxy-phenyl)-furo[3,2-b]pyridin-7-yl]-pyridin-2-yl}-amine] displayed a half-inhibitory concentration (IC50) of 0.3 to 3 µM.

`COc1ccc(C(N)=O)cc1-c1cc2nccc(-c3ccnc(NCCN)c3)c2o1` [Compound A80, 3-{7-[2-(2-amino-ethylamino)-pyridin-4-yl]-furo[3,2-b]pyridin-2-yl}-4-methoxybenzamide] displayed an IC50 of less than 0.1 µM.

As for `COc1cc(-c2cc3nccc(-c4cc(C)cc(C(=O)NCCCN)c4)c3o2)cc(OC)c1OC` [Compound A57, N-(3-amino-propyl)-3-methyl-5-[2-(3,4,5-trimethoxy-phenyl)-furo[3,2-b]pyridin-7-yl]-benzamide], the half-maximal inhibitory concentration (IC50) was 0.3 to 3 µM.

`COc1ccc(C(N)=O)cc1-c1cc2nccc(-c3ccnc(N[C@@H]4CCCC[C@@H]4N)c3)c2o1` [Compound A97, 3-{7-[2-((1R,2S)-2-amino-cyclohexylamino)-pyridin-4-yl]-furo[3,2-b]pyridin-2-yl}-4-methoxy-benzamide] came in with a 50% inhibitory concentration (IC50) of less than 0.1 µM.

Consider `CCc1ccccc1-c1cc2nccc(-c3cccc(C(=O)N[C@@H]4CCCC[C@@H]4N)c3)c2o1` [Compound A49, N-((1R,2S)-2-amino-cyclohexyl)-3-[2-(2-ethyl-phenyl)-furo[3,2-b]pyridin-7-yl]-benzamide], for which the concentration for half-maximal inhibition (IC50) fell in the range of 3 to 50 µM.

As to `COc1cc(-c2cc3nccc(NCC4CCCNC4)c3o2)cc(OC)c1OC` (stereo not shown) [Compound A2, Piperidin-3-ylmethyl-[2-(3,4,5-trimethoxy-phenyl)-furo[3,2-b]pyridin-7-yl]-amine], the IC50 was 3 to 50 µM.

Turning to `COc1ccc([C@@H](C)N)cc1-c1ccnc2cc(-c3cc(OC)c(OC)c(OC)c3)oc12` [Compound A100, (R)-1-{4-methoxy-3-[2-(3,4,5-trimethoxy-phenyl)-furo[3,2-b]pyridin-7-yl]-phenyl}-ethylamine], the 50% inhibitory concentration (IC50) was 0.3 to 3 µM.

For the molecule `COc1ccc(C(=O)NCC(O)CO)cc1-c1cc2nccc(-c3c(OC)cccc3OC)c2o1` (stereo not shown) [Compound A70, N-(2,3-dihydroxy-propyl)-3-[7-(2,6-dimethoxy-phenyl)-furo[3,2-b]pyridin-2-yl]-4-methoxy-benzamide], the IC50 fell in the range of 0.3 to 3 µM.

The molecule `COc1cc(-c2cc3nccc(-c4cccc(C(=O)N[C@H]5C[C@H](N)C5)c4)c3o2)cc(OC)c1OC` [Compound A24, N-(3-amino-cyclobutyl)-3-[2-(3,4,5-trimethoxy-phenyl)-furo[3,2-b]pyridin-7-yl]-benzamide] showed a concentration for half-maximal inhibition (IC50) of 0.3 to 3 µM.

Turning to `COc1cc(-c2cc3nccc(-c4cc(C(=O)N[C@@H]5CCCC[C@@H]5N)ccc4F)c3o2)cc(OC)c1OC` [Compound A48, N-((1R,2S)-2-mino-cyclohexyl)-4-fluoro-3-[2-(3,4,5-trimethoxy-phenyl)furo[3,2-b]pyridin-7-yl]-benzamide], the IC50 lay in the range of 0.3 to 3 µM.

For `COc1cc(-c2cc3nccc(-c4cc(C)cc(C(=O)NCCN)c4)c3o2)cc(OC)c1OC` [Compound A56, N-(2-amino-ethyl)-3-methyl-5-[2-(3,4,5-trimethoxy-phenyl)-furo[3,2-b]pyridin-7-yl]-benzamide], the IC50 was 0.3 to 3 µM.

Molecule `COc1cc(-c2cc3nccc(-c4cccc(C(=O)N[C@@H]5CCCC[C@H]5O)c4)c3o2)cc(OC)c1OC` [Compound A19, N-((1R,2R)-2-hydroxy-cyclohexyl)-3-[2-(3,4,5-trimethoxy-phenyl)-furo[3,2-b]pyridin-7-yl]-benzamide] gave an IC50 of 3 to 50 µM.

As to `COc1cc(-c2cc3nccc(-c4ccc5c(c4)[nH]c(=O)n5CCN)c3o2)cc(OC)c1OC` [Compound A37, 1-(2-amino-ethyl)-5-[2-(3,4,5-trimethoxy-phenyl)-furo[3,2-b]pyridin-7-yl]-1,3-dihydro-benzoimidazol-2-one], the IC50 was 0.3 to 3 µM.

The molecule `COc1cc(-c2cc3nccc(N4CCNCC4)c3o2)cc(OC)c1OC` [Compound A53, 7-piperazin-1-yl-2-(3,4,5-trimethoxy-phenyl)-furo[3,2-b]pyridine] yielded an IC50 of 3 to 50 µM.

For the molecule `COc1cc(-c2cc3nccc(N=[N+]=[N-])c3o2)cc(OC)c1OC` [Compound A86, 7-azido-2-(3,4,5-trimethoxy-phenyl)-furo[3,2-b]pyridine], the half-maximal inhibitory concentration (IC50) was 3 to 50 µM.

Take `COc1ccc([C@H](C)N)cc1-c1ccnc2cc(-c3cc(OC)c(OC)c(OC)c3)oc12` [Compound A101, (S)-1-{4-methoxy-3-[2-(3,4,5-trimethoxy-phenyl)-furo[3,2-b]pyridin-7-yl]-phenyl}-ethylamine]: the half-inhibitory concentration (IC50) is 0.3 to 3 µM.

Consider `COc1ccc(C(=O)NCCN)cc1-c1cc2nccc(-c3c(OC)cccc3OC)c2o1` [Compound A71, N-(2-amino-ethyl)-3-[7-(2,6-dimethoxy-phenyl)-furo[3,2-b]pyridin-2-yl]-4-methoxy-benzamide], for which the IC50 was in the range of 0.3 to 3 µM.

`COc1cc(-c2cc3nccc(-c4cccc(C(=O)N[C@H]5CCCC[C@H]5O)c4)c3o2)cc(OC)c1OC` [Compound A11, N-((1S,2R)-2-hydroxy-cyclohexyl)-3-[2-(3,4,5-trimethoxy-phenyl)-furo[3,2-b]pyridin-7-yl]-benzamide]: the IC50 was in the range of 0.3 to 3 µM.
